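How tested: cells in 96-well plates exposed to compound for 48 hours at five concentrations. GI50 marks 50% less growth. TGI is the concentration that stops growth completely.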
Tests used:
Assay in all cases: NCI-60 cell line screen, 48 h
[1] = tested on: MALME-3M melanoma
[2] = tested on: UO-31 renal
[3] = tested on: HOP-62 NSCLC
[4] = tested on: COLO 205 colon
[5] = tested on: T-47D breast
[6] = tested on: UACC-62 melanoma
[7] = tested on: SR leukemia
[8] = tested on: ACHN renal
[9] = tested on: SK-MEL-5 melanoma
[10] = tested on: LOX IMVI melanoma
[11] = tested on: M14 melanoma
[12] = tested on: RPMI-8226 leukemia
[13] = tested on: EKVX NSCLC
[14] = tested on: NCI/ADR-RES ovarian
[15] = tested on: SF-295 CNS
[16] = tested on: SK-MEL-28 melanoma
[17] = tested on: SNB-19 CNS
[18] = tested on: NCI-H522 lung
[19] = tested on: RXF 393 renal
[20] = tested on: SF-268 CNS
[21] = tested on: A498 renal
[22] = tested on: OVCAR-4 ovarian
[23] = tested on: UACC-257 melanoma
[24] = tested on: HOP-92 NSCLC
[25] = tested on: SF-539 CNS
[26] = tested on: HT29 colon
[27] = tested on: SK-OV-3 ovarian
[28] = tested on: NCI-H226 lung
[29] = tested on: KM12 colon
[30] = tested on: SNB-75 CNS
[31] = tested on: SW-620 colon
[32] = tested on: NCI-H23 lung
[33] = tested on: HS 578T breast
[34] = tested on: A549 NSCLC
[35] = tested on: CCRF-CEM leukemia
[36] = tested on: OVCAR-5 ovarian
[37] = tested on: CAKI-1 renal
[38] = tested on: U251 CNS
[39] = tested on: HCC-2998 colon
[40] = tested on: BT-549 breast
[41] = tested on: MCF7 breast
[42] = tested on: DU-145 prostate
[43] = tested on: HL-60(TB) leukemia
[44] = tested on: 786-0 renal
[45] = tested on: SK-MEL-2 melanoma
[46] = tested on: OVCAR-3 ovarian
[47] = tested on: OVCAR-8 ovarian
[48] = tested on: SN12C renal
[49] = tested on: MOLT-4 leukemia
[50] = tested on: NCI-H460 lung
[51] = tested on: TK-10 renal
[52] = tested on: MDA-MB-435
[53] = tested on: IGROV1 ovarian
[54] = tested on: PC-3 prostate
[55] = tested on: MDA-MB-231 breast
[56] = tested on: HCT-15 colon
[57] = tested on: K-562 leukemia
[58] = tested on: HCT-116 colon

`CCN(CC)c1ccc(/C=N/NC(=O)c2ccc(NS(C)(=O)=O)cc2)cc1` showed a GI50 [1] of 1.17 µM, a TGI [1] of 15.3 µM and a GI50 [2] of 0.58 µM. For the same molecule, the TGI [2] was 24.4 µM, the GI50 [3] was 0.415 µM and the TGI [3] was 17.8 µM. For the same molecule, the GI50 [4] was 0.643 µM, the TGI [4] was 25.9 µM and the GI50 [5] was 1.22 µM. The TGI [5] was > 72.1 µM, the GI50 [6] was 0.526 µM and the TGI [6] was 10.2 µM. For the same molecule, the GI50 [7] was 0.17 µM, the TGI [7] was > 100 µM and the GI50 [8] was 0.656 µM. For the same molecule, the TGI [8] was 57.1 µM, the GI50 [9] was 1.67 µM and the TGI [9] was > 46.5 µM. The GI50 [10] was 0.301 µM, the TGI [10] was 10.9 µM and the GI50 [11] was 0.463 µM. The TGI [11] was 3.42 µM, the GI50 [12] was 4.28 µM and the TGI [12] was > 60.7 µM. For the same molecule, the GI50 [13] was 1.01 µM, the TGI [13] was > 77 µM and the GI50 [14] was 3.86 µM. For the same molecule, the TGI [14] was > 100 µM, the GI50 [15] was 0.828 µM and the TGI [15] was 20.7 µM. For the same molecule, the GI50 [16] was 0.498 µM, the TGI [16] was > 78.2 µM and the GI50 [17] was 1.6 µM. For the same molecule, the TGI [17] was > 79.6 µM, the GI50 [18] was 0.418 µM and the TGI [18] was 15.1 µM. For the same molecule, the GI50 [19] was 1.18 µM, the TGI [19] was 4.78 µM and the GI50 [20] was 0.383 µM. For the same molecule, the TGI [20] was > 49 µM, the GI50 [21] was 6.09 µM and the TGI [21] was 41.3 µM. The GI50 [22] was 0.409 µM, the TGI [22] was > 100 µM and the GI50 [23] was 1.1 µM. For the same molecule, the TGI [23] was 21.2 µM, the GI50 [24] was 0.457 µM and the TGI [24] was 40.3 µM. It also gave a GI50 [25] of 0.571 µM, a TGI [25] of 11.3 µM and a GI50 [26] of 0.556 µM. It also gave a TGI [26] of 18.7 µM, a GI50 [27] of 1.05 µM and a TGI [27] of 27.7 µM. It also gave a GI50 [28] of 1.21 µM, a TGI [28] of 38 µM and a GI50 [29] of 0.907 µM. The TGI [29] was > 66.8 µM, the GI50 [30] was 0.434 µM and the TGI [30] was 16.9 µM. The GI50 [31] was 0.693 µM, the TGI [31] was > 100 µM and the GI50 [32] was 1.89 µM. The TGI [32] was > 100 µM, the GI50 [33] was 2.74 µM and the TGI [33] was 58.9 µM. For the same molecule, the GI50 [34] was 2.43 µM, the TGI [34] was > 100 µM and the GI50 [35] was 0.301 µM. For the same molecule, the TGI [35] was > 100 µM, the GI50 [36] was 2.32 µM and the TGI [36] was > 100 µM. The GI50 [37] was 0.554 µM, the TGI [37] was > 47 µM and the GI50 [38] was 0.236 µM. The TGI [38] was > 44.5 µM, the GI50 [39] was 0.704 µM and the TGI [39] was > 76.8 µM. It also gave a GI50 [40] of 0.847 µM, a TGI [40] of 11.2 µM and a GI50 [41] of 0.598 µM. The TGI [41] was > 100 µM, the GI50 [42] was 0.933 µM and the TGI [42] was > 100 µM. For the same molecule, the GI50 [43] was 0.294 µM, the GI50 [44] was 0.714 µM and the TGI [44] was 6.48 µM. It also gave a GI50 [45] of 4.33 µM, a TGI [45] of 24.6 µM and a GI50 [46] of 0.231 µM. The TGI [46] was 20.1 µM, the GI50 [47] was 0.445 µM and the TGI [47] was > 100 µM. The GI50 [48] was 0.978 µM, the TGI [48] was > 100 µM and the GI50 [49] was 0.433 µM. The TGI [49] was > 41.3 µM, the GI50 [50] was 0.564 µM and the TGI [50] was 11.8 µM. For the same molecule, the GI50 [51] was 1.74 µM, the TGI [51] was > 92.6 µM and the GI50 [52] was 1.56 µM. For the same molecule, the TGI [52] was > 100 µM, the GI50 [53] was 0.716 µM and the TGI [53] was > 100 µM. The GI50 [54] was 0.561 µM, the TGI [54] was > 100 µM and the GI50 [55] was 0.546 µM. The TGI [55] was > 72.1 µM, the GI50 [56] was 0.431 µM and the TGI [56] was 49.1 µM. The GI50 [57] was 0.595 µM, the TGI [57] was > 100 µM and the GI50 [58] was 0.352 µM. For the same molecule, the TGI [58] was > 87.7 µM.

Work on `CC(C)=CCc1c2c(c(O)c3c1O[C@]14C(=C[C@@H]5C[C@H]1C(C)(C)O[C@@]4(C/C=C(/C)C(=O)O)C5=O)C3=O)CC(O)C(C)(C)O2` (some centres undefined) yielded a GI50 [1] of 21.9 µM, a TGI [1] of 52.5 µM and a GI50 [2] of 14.8 µM. It also gave a TGI [2] of 32.7 µM, a GI50 [3] of 20.6 µM and a TGI [3] of 42.5 µM. It also gave a GI50 [4] of 20.2 µM, a TGI [4] of 43.4 µM and a GI50 [5] of 19 µM. The TGI [5] was 58.8 µM, the GI50 [6] was 15.5 µM and the TGI [6] was 34.8 µM. The GI50 [7] was 7.8 µM, the TGI [7] was > 100 µM and the GI50 [8] was 27.7 µM. For the same molecule, the TGI [8] was 85.7 µM, the GI50 [9] was 15 µM and the TGI [9] was 30.3 µM. It also gave a GI50 [10] of 11.2 µM, a TGI [10] of 25.2 µM and a GI50 [11] of 14.7 µM. For the same molecule, the TGI [11] was 34.7 µM, the GI50 [12] was 10.1 µM and the TGI [12] was 53.6 µM. The GI50 [13] was 21.6 µM, the TGI [13] was 69.8 µM and the GI50 [14] was 30.9 µM. The TGI [14] was > 100 µM, the GI50 [15] was 27.9 µM and the TGI [15] was 87 µM. The GI50 [16] was 19.7 µM, the TGI [16] was 47.6 µM and the GI50 [17] was 17.7 µM. It also gave a TGI [17] of 40.4 µM, a GI50 [18] of 14.9 µM and a TGI [18] of 28.4 µM. For the same molecule, the GI50 [19] was 19 µM, the TGI [19] was 38.2 µM and the GI50 [20] was 14.7 µM. It also gave a TGI [20] of 34.5 µM, a GI50 [22] of 24.4 µM and a TGI [22] of 86.8 µM. It also gave a GI50 [23] of 19.4 µM, a TGI [23] of 43.8 µM and a GI50 [24] of 22.1 µM. It also gave a TGI [24] of 48.9 µM, a GI50 [25] of 20.7 µM and a TGI [25] of 46.5 µM. For the same molecule, the GI50 [26] was 22 µM, the TGI [26] was 62.4 µM and the GI50 [27] was 40.6 µM. The TGI [27] was > 100 µM, the GI50 [28] was 23.8 µM and the TGI [28] was 72.7 µM. It also gave a GI50 [29] of 18.6 µM, a TGI [29] of 39.6 µM and a GI50 [30] of 21.3 µM. For the same molecule, the TGI [30] was 64.1 µM, the GI50 [31] was 13.2 µM and the TGI [31] was 33.2 µM. It also gave a GI50 [32] of 17.7 µM, a TGI [32] of 48.4 µM and a GI50 [33] of 14.1 µM. For the same molecule, the TGI [33] was 86 µM, the GI50 [34] was 31 µM and the TGI [34] was 78.1 µM. The GI50 [35] was 5.76 µM, the TGI [35] was 40.9 µM and the GI50 [36] was 28.6 µM. It also gave a TGI [36] of 74 µM, a GI50 [37] of 19.9 µM and a TGI [37] of 57 µM. For the same molecule, the GI50 [38] was 15 µM, the TGI [38] was 30.1 µM and the GI50 [39] was 17.7 µM. It also gave a TGI [39] of 32.9 µM, a GI50 [40] of 12.4 µM and a TGI [40] of 26.4 µM. For the same molecule, the GI50 [41] was 9.1 µM, the TGI [41] was 52.4 µM and the GI50 [42] was 20.8 µM. The TGI [42] was 48.1 µM, the GI50 [43] was 27.9 µM and the TGI [43] was 68 µM. It also gave a GI50 [44] of 19.7 µM, a TGI [44] of 38 µM and a GI50 [45] of 16.6 µM. The TGI [45] was 34.7 µM, the GI50 [46] was 14.5 µM and the TGI [46] was 28 µM. The GI50 [47] was 18 µM, the TGI [47] was 45.1 µM and the GI50 [48] was 18.9 µM. It also gave a TGI [48] of 51 µM, a GI50 [49] of 17.3 µM and a TGI [49] of 65.1 µM. It also gave a GI50 [50] of 16.7 µM, a TGI [50] of 39.6 µM and a GI50 [51] of 23.8 µM. The TGI [51] was 41.1 µM, the GI50 [52] was 18.9 µM and the TGI [52] was 51.8 µM. It also gave a GI50 [53] of 20.3 µM, a TGI [53] of 64.1 µM and a GI50 [54] of 19.8 µM. For the same molecule, the TGI [54] was 49.1 µM, the GI50 [55] was 26.5 µM and the TGI [55] was 92.2 µM. For the same molecule, the GI50 [56] was 22.6 µM, the TGI [56] was > 100 µM and the GI50 [57] was 11.6 µM. For the same molecule, the TGI [57] was > 100 µM, the GI50 [58] was 13.2 µM and the TGI [58] was 26.7 µM.

Reference: PubChem BioAssay (NCI)
